Results as given in PubChem BioAssay AID248 (DTP/NCI, 2004).
Where “and” joins values, the source holds several entries; their conditions need not be identical. Equal entries are not always repeated. Inconclusive results and toxic doses are left out. No stated cut-off is given here; in the data, active means T/C of 150% or more; inactive means T/C below 125%.

Tested on: L1210 leukemia ip in BDF1 mice, survival T/C
Assay: NCI In Vivo Anticancer Drug Screen. Data for tumor model L1210 Leukemia (intraperitoneal) in B6D2F1 (BDF1) mice
Settings: endpoint: mean survival time, higher = longer survival
How it was run: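 Tumor cells were implanted, animals were treated, and survival was followed. The result divides the treated measurement by the vehicle-control measurement.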

[1] = dose: 2.5 mg/kg/injection, schedule: Q01DX009 (ip), vehicle: carboxymethylcellulose (CMC)
[2] = dose: 10.0 mg/kg/injection, schedule: Q01DX009 (ip), vehicle: carboxymethylcellulose (CMC)
[3] = dose: 100.0 mg/kg/injection, schedule: Q01DX001 (ip), vehicle: carboxymethylcellulose (CMC)
[4] = dose: 200.0 mg/kg/injection, schedule: Q01DX001 (ip), vehicle: carboxymethylcellulose (CMC)
[5] = dose: 200.0 mg/kg/injection, schedule: Q01DX001 (ip), vehicle: saline
[6] = dose: 400.0 mg/kg/injection, schedule: Q01DX001 (ip), vehicle: carboxymethylcellulose (CMC)
[7] = dose: 5.0 mg/kg/injection, schedule: Q01DX001 (ip), vehicle: carboxymethylcellulose (CMC)
[8] = dose: 10.0 mg/kg/injection, schedule: Q01DX001 (ip), vehicle: saline
[9] = dose: 100.0 mg/kg/injection, schedule: Q04DX003 (ip), vehicle: saline
[10] = dose: 200.0 mg/kg/injection, schedule: Q04DX003 (ip), vehicle: saline
[11] = dose: 100.0 mg/kg/injection, schedule: Q01DX001 (ip), vehicle: saline
[12] = dose: 400.0 mg/kg/injection, schedule: Q01DX001 (ip), vehicle: saline
[13] = dose: 100.0 mg/kg/injection, schedule: Q01DX009 (ip), vehicle: Klucel (hydroxypropylcellulose) (HPC)
[14] = dose: 100.0 mg/kg/injection, schedule: Q04DX003 (ip), vehicle: Klucel (hydroxypropylcellulose) (HPC)
[15] = dose: 200.0 mg/kg/injection, schedule: Q01DX009 (ip), vehicle: Klucel (hydroxypropylcellulose) (HPC)
[16] = dose: 200.0 mg/kg/injection, schedule: Q04DX003 (ip), vehicle: Klucel (hydroxypropylcellulose) (HPC)
[17] = dose: 50.0 mg/kg/injection, schedule: Q01DX009 (ip), vehicle: Klucel (hydroxypropylcellulose) (HPC)
[18] = dose: 400.0 mg/kg/injection, schedule: Q04DX003 (ip), vehicle: saline

Measured: T/C

COc1cc(C=Nc2cccc(F)c2)ccc1N(CCCl)CCCl
inactive: [1] 96 % of control | dose: 5.0 mg/kg/injection, schedule: Q01DX009 (ip), vehicle: carboxymethylcellulose (CMC) 104 % of control | dose: 10.0 mg/kg/injection, schedule: Q01DX009 (ip), vehicle: acetone 118 % of control | [2] 108 % of control | dose: 45.0 mg/kg/injection, schedule: Q01DX001 (ip), vehicle: saline 110 % of control | dose: 50.0 mg/kg/injection, schedule: Q01DX001 (ip), vehicle: carboxymethylcellulose (CMC) 101 % of control | dose: 67.0 mg/kg/injection, schedule: Q01DX001 (ip), vehicle: saline 115 % of control | [3] 98 % of control | [4] 103 % of control
active: [5] 152 % of control

c1ccc(-c2ccccc2SSc2ccccc2-c2ccccc2)cc1
inactive: [3] 96 % of control | [4] 105 % of control | [6] 91 % of control

CCOC(=O)N1C=Cn2c(cnc2C)C1OC (stereo not drawn)
inactive: dose: 50.0 mg/kg/injection, schedule: Q01DX009 (ip), vehicle: water 93 % of control | dose: 100.0 mg/kg/injection, schedule: Q01DX009 (ip), vehicle: water 98 % of control | dose: 200.0 mg/kg/injection, schedule: Q01DX009 (ip), vehicle: water 95 % of control and 86 % of control

COc1ccc(Cl)cc1/C=C\C=N\NC(=O)C[N+](C)(C)C
inactive: dose: 15.0 mg/kg/injection, schedule: Q01DX001 (ip), vehicle: carboxymethylcellulose (CMC) 95 % of control | dose: 30.0 mg/kg/injection, schedule: Q01DX001 (ip), vehicle: carboxymethylcellulose (CMC) 93 % of control

Nc1ccc(N(CCCl)CCN(CCCl)c2ccc(N)cc2)cc1
inactive: dose: 0.25 mg/kg/injection, schedule: Q01DX009 (ip), vehicle: saline 102 % of control | dose: 0.5 mg/kg/injection, schedule: Q01DX009 (ip), vehicle: saline 109 % of control | dose: 1.0 mg/kg/injection, schedule: Q01DX009 (ip), vehicle: saline 118 % of control | dose: 1.2 mg/kg/injection, schedule: Q01DX009 (ip), vehicle: carboxymethylcellulose (CMC) 109 % of control | dose: 2.5 mg/kg/injection, schedule: Q01DX001 (ip), vehicle: carboxymethylcellulose (CMC) 106 % of control | [1] 111 % of control | dose: 2.9 mg/kg/injection, schedule: Q01DX001 (ip), vehicle: carboxymethylcellulose (CMC) 114 % of control | dose: 2.9 mg/kg/injection, schedule: Q01DX009 (ip), vehicle: carboxymethylcellulose (CMC) 119 % of control | dose: 4.0 mg/kg/injection, schedule: Q01DX001 (ip), vehicle: saline 106 % of control | dose: 4.4 mg/kg/injection, schedule: Q01DX001 (ip), vehicle: carboxymethylcellulose (CMC) 119 % of control | [7] 115 % of control | dose: 6.0 mg/kg/injection, schedule: Q01DX001 (ip), vehicle: saline 122 % of control | [8] 111 % of control | [2] 106 % of control | dose: 10.0 mg/kg/injection, schedule: Q01DX009 (ip), vehicle: saline 105 % of control | dose: 15.0 mg/kg/injection, schedule: Q01DX001 (ip), vehicle: saline 117 % of control
active: dose: 2.9 mg/kg/injection, schedule: Q01DX009 (ip), vehicle: saline 169 % of control | dose: 4.4 mg/kg/injection, schedule: Q01DX009 (ip), vehicle: saline 159 % of control

O=C(Nc1cccc(C(F)(F)F)c1)Nc1c(Oc2ccc(Cl)c(Cl)c2)ccc(Cl)c1S(=O)(=O)O
inactive: [9] 103 % of control | [10] 94 % of control

CCCS(=O)(=O)C(S(C)(=O)=O)S(=O)(=O)CC (stereo not drawn)
inactive: dose: 100.0 mg/kg/injection, schedule: Q01DX001 (ip), vehicle: Klucel (hydroxypropylcellulose) (HPC) 94 % of control | dose: 200.0 mg/kg/injection, schedule: Q01DX001 (ip), vehicle: Klucel (hydroxypropylcellulose) (HPC) 98 % of control | dose: 400.0 mg/kg/injection, schedule: Q01DX001 (ip), vehicle: Klucel (hydroxypropylcellulose) (HPC) 91 % of control

CC(C)CCC1(C)CC(=O)Nc2ccccc21 (stereo not drawn)
inactive: [11] 97 % of control | [5] 94 % of control | [12] 95 % of control

Nc1ncnc2c1c(Br)cn2C1OC(CO)C(O)C1O (stereo not drawn)
inactive: [7] 106 % of control

COC(OC)c1[nH]c(=S)[nH]c(=O)c1C
inactive: dose: 100.0 mg/kg/injection, schedule: Q04DX003 (ip), vehicle: saline with Tween-80 107 % of control | dose: 200.0 mg/kg/injection, schedule: Q04DX003 (ip), vehicle: saline with Tween-80 105 % of control | dose: 400.0 mg/kg/injection, schedule: Q04DX003 (ip), vehicle: saline with Tween-80 105 % of control

CC(=O)N(NC(=O)c1ccccn1)C(C)=O
inactive: dose: 100.0 mg/kg/injection, schedule: Q01DX001 (ip), vehicle: water 97 % of control | dose: 200.0 mg/kg/injection, schedule: Q01DX001 (ip), vehicle: water 106 % of control

Cc1ccc([N+](=O)[O-])cc1NC(=O)c1ccccc1
inactive: [3] 93 % of control | [4] 96 % of control | [6] 93 % of control

NNc1ccnc2c1cnn2C1OC(CO)C(O)C1O (stereo not drawn)
inactive: dose: 50.0 mg/kg/injection, schedule: Q01DX005 (ip), vehicle: other 105 % of control

Cc1ccc(S(=O)(=O)N(C)c2ccc3cc(C(=O)O)ccc3c2)cc1
inactive: [13] 94 % of control | [14] 102 % of control | [15] 95 % of control | [16] 106 % of control | dose: 400.0 mg/kg/injection, schedule: Q01DX009 (ip), vehicle: Klucel (hydroxypropylcellulose) (HPC) 94 % of control | dose: 400.0 mg/kg/injection, schedule: Q04DX003 (ip), vehicle: Klucel (hydroxypropylcellulose) (HPC) 90 % of control

COC1C(OC(C)=O)CC(=O)OC(C)C/C=C/C=C\C(O)C(C)CC(CC=O)C1OC1OC(C)C(OC2CC(C)(O)C(OC(=O)CC(C)C)C(C)O2)C(N(C)C)C1O (stereo not drawn)
inactive: [11] 96 % of control | [12] 90 % of control

Cc1c(Cl)c(=O)[nH]c2ccccc12
inactive: [17] 101 % of control | [13] 97 % of control | [15] 106 % of control

CCN(CC)C(=O)C1C2CC3OC(=O)C1C3C2 (stereo not drawn)
inactive: [9] 105 % of control and 108 % of control | [10] 94 % of control and 102 % of control | [18] 104 % of control

Nc1nc(-c2ccccc2N=NN2CCCCC2)nc2ccccc12
inactive: [17] 107 % of control | [13] 118 % of control | [14] 109 % of control | [15] 107 % of control | [16] 104 % of control

Cc1c(CCO)sc[n+]1Cc1ccccc1[N+](=O)[O-]
inactive: dose: 5.0 mg/kg/injection, schedule: Q01DX001 (ip), vehicle: saline 102 % of control | [8] 100 % of control | dose: 20.0 mg/kg/injection, schedule: Q01DX001 (ip), vehicle: saline 102 % of control | dose: 40.0 mg/kg/injection, schedule: Q01DX001 (ip), vehicle: saline 105 % of control | dose: 80.0 mg/kg/injection, schedule: Q01DX001 (ip), vehicle: saline 98 % of control | [11] 93 % of control

CCNC(=O)C1C2CCC(C2)C1C(=O)NCC (stereo not drawn)
inactive: [9] 104 % of control | [10] 87 % of control | [18] 96 % of control

CCOC1C=CC(O)C(CO)O1 (stereo not drawn)
inactive: [11] 101 % of control | [5] 98 % of control | [12] 95 % of control

COc1nc2ccccc2n1C1OC(CO)C(O)C1O (stereo not drawn)
inactive: [11] 97 % of control | [5] 100 % of control | [12] 105 % of control

CCOC(=O)CNC(=O)C(CSCc1cccs1)NC(=O)OCc1ccccc1 (stereo not drawn)
inactive: dose: 100.0 mg/kg/injection, schedule: Q01DX009 (ip), vehicle: saline with Tween-80 100 % of control | dose: 200.0 mg/kg/injection, schedule: Q01DX009 (ip), vehicle: saline with Tween-80 94 % of control | dose: 400.0 mg/kg/injection, schedule: Q01DX009 (ip), vehicle: saline with Tween-80 90 % of control

O=C(CCCC(=O)N/N=C/C=C/c1ccccc1)N/N=C/C=C\c1ccccc1
inactive: dose: 50.0 mg/kg/injection, schedule: Q01DX001 (ip), vehicle: saline 87 % of control | [11] 110 % of control | [5] 93 % of control | [12] 97 % of control

[N-]=[N+]=NCC1OCOC1C1OCOC1CN=[N+]=[N-] (stereo not drawn)
inactive: dose: 25.0 mg/kg/injection, schedule: Q01DX009 (ip), vehicle: saline 96 % of control | dose: 50.0 mg/kg/injection, schedule: Q01DX009 (ip), vehicle: saline 98 % of control | dose: 100.0 mg/kg/injection, schedule: Q01DX009 (ip), vehicle: saline 102 % of control
